Active and inactive are the calls of the source.
Columns and labels:
[1] = biological target: T1, High affinity choline transporter 1 (Homo sapiens, UniProt Q9GZV3); assay: CHT inhibitors, dose response, cell-based, 5-point CRC, membrane potential dye (AID 504840); type: functional
T1 sequence (Q9GZV3 whole entry): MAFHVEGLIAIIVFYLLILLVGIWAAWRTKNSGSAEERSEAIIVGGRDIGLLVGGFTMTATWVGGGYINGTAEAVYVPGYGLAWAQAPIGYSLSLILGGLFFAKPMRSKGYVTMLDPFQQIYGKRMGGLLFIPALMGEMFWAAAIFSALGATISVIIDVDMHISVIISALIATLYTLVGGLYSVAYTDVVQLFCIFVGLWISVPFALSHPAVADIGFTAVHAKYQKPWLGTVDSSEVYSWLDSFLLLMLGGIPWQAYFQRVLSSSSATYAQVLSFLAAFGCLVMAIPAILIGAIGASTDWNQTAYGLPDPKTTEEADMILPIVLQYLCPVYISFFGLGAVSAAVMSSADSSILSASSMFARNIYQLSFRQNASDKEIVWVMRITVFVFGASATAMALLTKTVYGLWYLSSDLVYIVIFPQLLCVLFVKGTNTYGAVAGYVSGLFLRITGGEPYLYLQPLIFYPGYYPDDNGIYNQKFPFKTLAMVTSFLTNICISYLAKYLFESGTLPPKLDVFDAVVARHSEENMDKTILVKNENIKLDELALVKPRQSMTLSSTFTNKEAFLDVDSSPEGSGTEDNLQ

[2] = biological target: T1, High affinity choline transporter 1; assay: CHT inhibitors, dose response, cell-based, 10-point CRC, membrane potential dye (AID 588401); type: functional;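 also: membrane potential dye fluorescence of choline-evoked depolarization via CHT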
[3] = biological target: T2, Polyadenylate-binding protein 1 (Homo sapiens, UniProt P11940); assay: PABP1 MLLE–PAM2 interaction inhibitors, dose response, miRNA deadenylation inhibitor project, biochemical, fluorescence polarization, Cy5-PAM2 peptide, secondary (AID 602260); type: functional; settings: read-out: IC50_Mean
T2 sequence (P11940 whole entry): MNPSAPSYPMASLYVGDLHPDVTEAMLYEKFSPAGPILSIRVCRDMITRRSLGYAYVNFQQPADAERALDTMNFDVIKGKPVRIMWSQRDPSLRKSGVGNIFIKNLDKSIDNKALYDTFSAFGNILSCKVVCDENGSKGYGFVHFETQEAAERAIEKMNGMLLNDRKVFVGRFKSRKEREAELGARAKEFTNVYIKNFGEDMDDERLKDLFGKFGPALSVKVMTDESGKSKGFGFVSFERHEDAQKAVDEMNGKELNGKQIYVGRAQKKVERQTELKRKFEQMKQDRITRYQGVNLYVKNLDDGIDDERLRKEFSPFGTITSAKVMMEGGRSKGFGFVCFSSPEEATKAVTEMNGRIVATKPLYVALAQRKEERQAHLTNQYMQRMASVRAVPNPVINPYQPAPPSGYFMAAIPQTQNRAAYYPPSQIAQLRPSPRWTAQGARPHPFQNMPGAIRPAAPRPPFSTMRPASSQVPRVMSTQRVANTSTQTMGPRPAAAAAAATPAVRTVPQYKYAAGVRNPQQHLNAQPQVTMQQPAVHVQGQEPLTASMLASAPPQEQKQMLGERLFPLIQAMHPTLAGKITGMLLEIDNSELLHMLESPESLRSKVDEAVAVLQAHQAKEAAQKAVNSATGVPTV

[4] = biological target: Mitochondrial peptide methionine sulfoxide reductase (Bos taurus, UniProt P54149); assay: Absorbance-based biochemical high throughput dose response assay for activators of Methionine sulfoxide reductase A (MsrA).; type: functional
[5] = biological target: T2, Polyadenylate-binding protein 1; assay: PABP1 MLLE–PAM2 binding inhibitor potency, dose response, biochemical, fluorescence polarization, FITC-PAM2 peptide (AID 602259); type: functional; settings: read-out: IC50_Mean
Melanocortin receptor 4 = Melanocortin receptor 4 (Homo sapiens, UniProt P32245); type: functional, cell-based;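 also: Cell-based assay with luminescence read-out, confirmatory dose-response testing for agonist activity of biased ligands at MC4R; human U2OS cells with tagged receptor and beta-arrestin; potency of agonists that increase receptor coupling to beta-arrestin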
[6] = HEp-2 cell cytotoxicity, dose response, cytotoxicity control for RSV inhibitor project, HTS (AID 2410); type: functional; settings: human respiratory syncytial virus
[7] = biological target: Heat shock protein HSP 90-alpha (Homo sapiens, UniProt P07900); type: functional, organism-based
[8] = biological target: Melanin-concentrating hormone receptor 1 (Homo sapiens, UniProt Q99705); assay: Late-stage fluorescence-based counterscreen for antagonists of the G-protein coupled receptor 7 (GPR7): cell-based dose response assay to identify antagonists of the melanin-concentrating hormone receptor 1 (MCHR1) Set 6.; type: functional
Melanin-concentrating hormone receptor 1, sequence (Q99705 whole entry): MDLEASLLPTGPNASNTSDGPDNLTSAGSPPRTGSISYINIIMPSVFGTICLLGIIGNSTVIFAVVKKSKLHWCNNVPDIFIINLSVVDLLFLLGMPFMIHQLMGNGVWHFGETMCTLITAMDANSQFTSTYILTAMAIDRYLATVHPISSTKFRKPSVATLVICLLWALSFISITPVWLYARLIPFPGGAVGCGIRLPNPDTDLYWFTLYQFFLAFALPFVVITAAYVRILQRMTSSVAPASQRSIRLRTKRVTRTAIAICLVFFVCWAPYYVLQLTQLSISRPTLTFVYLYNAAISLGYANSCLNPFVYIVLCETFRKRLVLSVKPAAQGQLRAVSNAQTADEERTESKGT

[9] = biological target: T3, Neuropeptides B/W receptor type 1 (Homo sapiens, UniProt P48145); assay: GPR7 antagonist potency, late-stage follow-up, cell-based, fluorescence, dose response, set 6 (AID 588583); type: functional
T3 sequence (P48145 whole entry): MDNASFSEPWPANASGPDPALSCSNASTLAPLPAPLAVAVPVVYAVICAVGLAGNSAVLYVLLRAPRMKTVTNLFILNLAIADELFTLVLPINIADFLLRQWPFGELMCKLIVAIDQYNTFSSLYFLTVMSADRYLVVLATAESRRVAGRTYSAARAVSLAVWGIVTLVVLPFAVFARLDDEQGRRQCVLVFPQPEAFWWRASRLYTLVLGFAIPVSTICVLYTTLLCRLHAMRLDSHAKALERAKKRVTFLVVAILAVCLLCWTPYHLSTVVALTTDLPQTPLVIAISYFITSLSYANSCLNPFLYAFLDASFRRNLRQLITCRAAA

[10] = biological target: Aryl hydrocarbon receptor (Homo sapiens, UniProt P35869); settings: Potency;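 also: confirmatory quantitative high-throughput screen measuring activation of the AhR signaling pathway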
Nonstructural protein 1 = Nonstructural protein 1 (Influenza A virus, UniProt Q194T2); type: functional, Influenza A virus (A/California/07/2009(H1N1))
[11] = AlphaScreen signal interference compounds, dose response, artefact control for ARNT-TACC3 interaction inhibitor project, biochemical, luminescence, cherry-pick (AID 651705); type: functional;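 also: AlphaScreen bead proximity signal that flags compounds interfering with the detection technology; potency reflects signal decrease which marks the compound as an assay artifact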
CHO-K1 = assay: (§1) Counterscreen for antagonists of the orexin 1 receptor (OX1R; HCRTR1): Homogeneous time resolved fluorescence (HTRF)-based cell-based dose response assay to identify antagonists of the parental CHO-K1 cell line. [Related pubchem assays (depositor defined):AID434989, AID435008, AID463079, AID485270, AID492963, AID492964, AID492965, AID493232, AID504699, AID504701]; type: functional; settings: Cricetulus griseus
[12] = as §1, with “Fluorescence-based” for “Homogeneous time resolved fluorescence (HTRF)-based”, “cell-based high throughput” for “cell-based”, “CHO” for “CHO-K1”; type: functional
[13] = biological target: T4, Orexin/Hypocretin receptor type 1 (Homo sapiens, UniProt O43613); assay: Homogeneous Time Resolved Fluorescence (HTRF)-based cell-based high throughput dose response assay for antagonists of the orexin 1 receptor (OX1R; HCRTR1). [Related pubchem assays (depositor defined):AID434989, AID435008, AID463079, AID485270, AID492963, AID492964, AID492965, AID493232, AID504717, AID504718]; type: functional
T4 sequence (O43613 whole entry): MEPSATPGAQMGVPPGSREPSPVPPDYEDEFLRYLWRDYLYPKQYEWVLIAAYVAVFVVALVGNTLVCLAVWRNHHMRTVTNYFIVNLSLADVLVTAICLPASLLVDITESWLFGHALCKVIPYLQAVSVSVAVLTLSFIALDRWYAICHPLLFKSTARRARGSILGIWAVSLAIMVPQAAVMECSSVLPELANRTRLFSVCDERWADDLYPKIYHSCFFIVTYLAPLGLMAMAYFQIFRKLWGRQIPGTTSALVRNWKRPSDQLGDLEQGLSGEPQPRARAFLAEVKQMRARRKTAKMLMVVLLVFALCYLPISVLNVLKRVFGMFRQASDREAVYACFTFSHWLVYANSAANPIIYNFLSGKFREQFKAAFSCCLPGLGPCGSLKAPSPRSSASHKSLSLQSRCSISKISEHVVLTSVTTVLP

[14] = biological target: T4, Orexin/Hypocretin receptor type 1; assay: Fluorescence-based cell-based high throughput dose response assay for antagonists of the orexin 1 receptor (OX1R; HCRTR1). [Related pubchem assays (depositor defined):AID434989, AID435008, AID463079, AID485270, AID492963, AID492964, AID492965, AID493232, AID504717, AID504718]; type: functional
Orexin receptor type 2 [15] = biological target: T5, Orexin receptor type 2 (Homo sapiens, UniProt O43614); assay: Counterscreen assay for antagonists of the orexin 1 receptor (OX1R; HCRTR1): Fluorescence-based cell-based dose response assay for antagonists of the orexin 2 receptor (OX2R; HCRTR2), run by assay provider.; type: functional
T5 sequence (O43614 whole entry): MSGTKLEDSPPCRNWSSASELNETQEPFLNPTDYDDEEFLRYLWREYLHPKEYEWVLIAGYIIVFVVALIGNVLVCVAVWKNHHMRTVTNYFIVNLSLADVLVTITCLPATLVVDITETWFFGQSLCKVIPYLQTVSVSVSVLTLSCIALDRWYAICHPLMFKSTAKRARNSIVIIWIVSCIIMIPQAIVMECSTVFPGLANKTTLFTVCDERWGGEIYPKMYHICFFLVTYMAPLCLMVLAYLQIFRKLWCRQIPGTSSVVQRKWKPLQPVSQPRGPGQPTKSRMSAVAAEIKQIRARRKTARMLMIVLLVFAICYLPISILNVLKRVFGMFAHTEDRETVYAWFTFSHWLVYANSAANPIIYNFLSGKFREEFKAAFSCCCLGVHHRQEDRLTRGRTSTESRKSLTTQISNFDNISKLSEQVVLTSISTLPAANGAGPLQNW

Orexin receptor type 2 [16] = biological target: T5, Orexin receptor type 2; assay: Counterscreen assay for antagonists of the orexin 1 receptor (OX1R; HCRTR1): Homogeneous Time Resolved Fluorescence (HTRF)-based cell-based dose response assay for antagonists of the orexin 2 receptor (OX2R; HCRTR2), run by assay provider.; type: functional
[17] = biological target: Potassium voltage-gated channel subfamily KQT member 2 (Rattus norvegicus, UniProt O88943); assay: KCNQ2 potassium channel inhibitors, dose response, cell-based, automated electrophysiology, set II, rat KCNQ2 (AID 588637); type: functional
Potassium voltage-gated channel subfamily KQT member 2, sequence (O88943 whole entry): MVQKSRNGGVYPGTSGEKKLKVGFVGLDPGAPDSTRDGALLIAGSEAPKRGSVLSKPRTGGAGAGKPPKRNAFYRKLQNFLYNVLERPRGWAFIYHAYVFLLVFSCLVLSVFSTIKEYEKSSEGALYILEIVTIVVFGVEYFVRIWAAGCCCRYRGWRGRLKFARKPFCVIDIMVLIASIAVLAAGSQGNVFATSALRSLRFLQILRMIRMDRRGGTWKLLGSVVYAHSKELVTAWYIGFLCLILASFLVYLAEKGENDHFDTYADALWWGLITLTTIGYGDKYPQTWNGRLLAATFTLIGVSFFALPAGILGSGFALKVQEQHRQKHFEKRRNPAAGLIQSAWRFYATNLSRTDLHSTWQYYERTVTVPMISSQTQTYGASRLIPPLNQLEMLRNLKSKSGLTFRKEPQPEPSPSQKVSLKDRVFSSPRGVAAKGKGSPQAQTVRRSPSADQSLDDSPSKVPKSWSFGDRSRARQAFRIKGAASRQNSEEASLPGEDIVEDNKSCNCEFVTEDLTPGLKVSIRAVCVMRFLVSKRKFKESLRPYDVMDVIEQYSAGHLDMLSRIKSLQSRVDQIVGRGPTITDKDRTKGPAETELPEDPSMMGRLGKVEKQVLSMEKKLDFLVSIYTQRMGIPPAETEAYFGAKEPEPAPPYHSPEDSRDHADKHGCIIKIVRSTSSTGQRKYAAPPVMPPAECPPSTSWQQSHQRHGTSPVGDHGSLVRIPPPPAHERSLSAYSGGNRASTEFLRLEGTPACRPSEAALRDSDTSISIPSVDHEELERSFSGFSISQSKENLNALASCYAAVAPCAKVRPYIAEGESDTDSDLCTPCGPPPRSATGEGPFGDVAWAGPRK

[18] = biological target: T6, Voltage-gated N-type calcium channel alpha-1B subunit/Amyloid beta A4 precursor protein-binding family A member 1 (Homo sapiens, UniProt Q00975+Q02410); type: protein assay
T6 sequence (Q00975 whole entry): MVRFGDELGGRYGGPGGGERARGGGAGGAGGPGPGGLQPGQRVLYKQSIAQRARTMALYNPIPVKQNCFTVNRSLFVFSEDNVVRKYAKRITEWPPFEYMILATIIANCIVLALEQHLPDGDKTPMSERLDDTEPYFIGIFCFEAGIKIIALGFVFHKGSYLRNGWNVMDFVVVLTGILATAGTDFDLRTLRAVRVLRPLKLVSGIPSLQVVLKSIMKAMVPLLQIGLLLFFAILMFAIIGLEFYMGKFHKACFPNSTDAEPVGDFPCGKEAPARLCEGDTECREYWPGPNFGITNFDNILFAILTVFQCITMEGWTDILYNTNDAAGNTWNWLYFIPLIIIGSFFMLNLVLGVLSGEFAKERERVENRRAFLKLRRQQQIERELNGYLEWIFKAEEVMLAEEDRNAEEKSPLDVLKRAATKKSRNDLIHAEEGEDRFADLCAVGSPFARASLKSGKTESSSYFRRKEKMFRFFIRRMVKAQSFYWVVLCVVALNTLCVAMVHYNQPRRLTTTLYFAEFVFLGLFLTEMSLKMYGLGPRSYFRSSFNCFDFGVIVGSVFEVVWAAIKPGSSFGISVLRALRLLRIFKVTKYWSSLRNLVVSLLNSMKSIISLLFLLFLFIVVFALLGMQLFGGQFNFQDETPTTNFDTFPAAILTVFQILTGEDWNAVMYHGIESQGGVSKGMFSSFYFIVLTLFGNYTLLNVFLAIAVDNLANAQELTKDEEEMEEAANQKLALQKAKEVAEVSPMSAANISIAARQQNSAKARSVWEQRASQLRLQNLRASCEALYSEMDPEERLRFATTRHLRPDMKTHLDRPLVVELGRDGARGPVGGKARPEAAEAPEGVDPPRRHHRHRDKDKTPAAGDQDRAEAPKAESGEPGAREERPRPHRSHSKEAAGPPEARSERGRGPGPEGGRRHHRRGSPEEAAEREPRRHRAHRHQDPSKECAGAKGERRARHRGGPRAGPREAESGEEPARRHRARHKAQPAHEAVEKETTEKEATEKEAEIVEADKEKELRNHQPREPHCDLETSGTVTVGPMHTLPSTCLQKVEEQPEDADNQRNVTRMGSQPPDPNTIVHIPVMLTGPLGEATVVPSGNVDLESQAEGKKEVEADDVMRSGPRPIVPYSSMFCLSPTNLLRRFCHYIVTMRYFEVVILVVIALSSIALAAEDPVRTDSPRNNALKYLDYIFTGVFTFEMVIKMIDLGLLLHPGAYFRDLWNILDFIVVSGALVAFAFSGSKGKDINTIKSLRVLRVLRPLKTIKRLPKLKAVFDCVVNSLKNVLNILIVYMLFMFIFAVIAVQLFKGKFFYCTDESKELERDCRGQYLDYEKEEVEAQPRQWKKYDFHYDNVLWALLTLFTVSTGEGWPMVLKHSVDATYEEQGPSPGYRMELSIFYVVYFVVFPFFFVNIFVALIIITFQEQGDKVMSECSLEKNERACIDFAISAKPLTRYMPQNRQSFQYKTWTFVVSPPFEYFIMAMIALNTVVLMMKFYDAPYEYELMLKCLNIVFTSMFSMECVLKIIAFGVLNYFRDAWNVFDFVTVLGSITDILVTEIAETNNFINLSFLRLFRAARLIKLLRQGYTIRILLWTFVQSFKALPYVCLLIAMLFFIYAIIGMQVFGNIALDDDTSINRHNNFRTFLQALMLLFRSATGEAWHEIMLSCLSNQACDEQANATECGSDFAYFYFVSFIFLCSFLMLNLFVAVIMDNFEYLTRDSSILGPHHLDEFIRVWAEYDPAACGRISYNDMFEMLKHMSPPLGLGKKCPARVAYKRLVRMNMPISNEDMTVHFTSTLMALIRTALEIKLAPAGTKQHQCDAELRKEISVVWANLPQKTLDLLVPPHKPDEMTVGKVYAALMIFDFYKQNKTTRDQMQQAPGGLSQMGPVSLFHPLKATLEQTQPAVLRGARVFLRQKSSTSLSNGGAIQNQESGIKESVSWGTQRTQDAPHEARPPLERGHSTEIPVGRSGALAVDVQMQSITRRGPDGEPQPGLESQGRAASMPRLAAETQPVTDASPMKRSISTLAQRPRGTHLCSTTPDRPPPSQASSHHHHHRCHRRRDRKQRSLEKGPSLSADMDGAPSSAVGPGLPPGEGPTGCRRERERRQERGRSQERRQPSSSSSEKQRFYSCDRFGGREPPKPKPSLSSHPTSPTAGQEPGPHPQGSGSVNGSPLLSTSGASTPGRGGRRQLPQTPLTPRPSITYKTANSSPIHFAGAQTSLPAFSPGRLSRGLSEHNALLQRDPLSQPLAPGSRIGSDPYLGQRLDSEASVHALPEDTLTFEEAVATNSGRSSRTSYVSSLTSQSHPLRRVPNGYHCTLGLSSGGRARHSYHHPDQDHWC
T6 sequence (Q02410 whole entry): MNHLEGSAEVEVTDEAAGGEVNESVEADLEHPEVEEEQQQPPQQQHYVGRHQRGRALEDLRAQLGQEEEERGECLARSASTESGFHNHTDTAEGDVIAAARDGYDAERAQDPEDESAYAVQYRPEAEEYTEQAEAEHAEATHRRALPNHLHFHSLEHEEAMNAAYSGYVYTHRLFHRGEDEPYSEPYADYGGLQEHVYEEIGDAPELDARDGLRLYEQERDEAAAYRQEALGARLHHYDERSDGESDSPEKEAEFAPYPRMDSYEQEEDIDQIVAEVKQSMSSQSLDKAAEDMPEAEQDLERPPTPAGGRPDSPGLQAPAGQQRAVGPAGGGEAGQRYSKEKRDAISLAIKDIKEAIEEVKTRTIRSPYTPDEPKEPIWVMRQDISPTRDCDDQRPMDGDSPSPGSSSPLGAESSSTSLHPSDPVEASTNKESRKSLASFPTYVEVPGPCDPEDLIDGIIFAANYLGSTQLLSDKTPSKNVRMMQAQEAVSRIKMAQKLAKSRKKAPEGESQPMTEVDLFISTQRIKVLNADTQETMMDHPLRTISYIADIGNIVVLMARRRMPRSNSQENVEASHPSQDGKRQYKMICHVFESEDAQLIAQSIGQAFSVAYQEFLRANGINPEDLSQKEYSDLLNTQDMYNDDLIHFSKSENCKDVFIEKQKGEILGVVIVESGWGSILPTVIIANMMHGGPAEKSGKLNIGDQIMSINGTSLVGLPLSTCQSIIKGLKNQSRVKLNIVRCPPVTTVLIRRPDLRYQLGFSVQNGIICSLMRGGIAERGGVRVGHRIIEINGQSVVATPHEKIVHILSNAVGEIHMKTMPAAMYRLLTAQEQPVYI

[19] = biological target: T6, Voltage-gated N-type calcium channel alpha-1B subunit/Amyloid beta A4 precursor protein-binding family A member 1; type: protein assay; remark: listed apart in the source
Trypsin = Trypsin (Sus scrofa, UniProt P00761); assay: porcine trypsin inhibitors, dose response, selectivity assay for Rce1 protease inhibitor project, biochemical, quenched peptide fluorescence, cherry-pick (AID 488789)

O=C(CSc1c2c(nc3ccc(Cl)cc13)CCCC2)NCCCN1CCOCC1
IC50 [1]: 4.29 µM (active) | IC50 [2]: 4.47 µM (active)

CC(C)CNc1nc(S)nc(N(C)C)n1
IC50 [3]: > 66 µM (inactive) | EC50 [4]: > 104 µM (inactive) | IC50 [5]: > 66 µM (inactive)

O=C(NC(c1ccccc1)c1ccc2ccccc2n1)C1CCN(CCOc2ccc(Cl)cc2Cl)CC1 (stereo not drawn)
EC50 (Melanocortin receptor 4): > 89.2 µM (inactive)

Oc1c(Br)cc(Br)cc1/C=N\c1cccnc1
CC50 [6]: 17.3 µM (active) | AC50 [7]: 3.09 µM (active) | IC50 [1]: 4.37 µM (active) | IC50 [2]: 2.99 µM (active)

COc1ccc(Oc2c(CCl)cnn(Cc3cccc4ccccc34)c2=O)cc1
IC50 [8]: 2.87 µM (active) | IC50 [9]: 2.87 µM (active)

O=[N+]([O-])Nc1nccn1Cc1ccc(Cl)nc1 [DEHYDROIMIDACLOPRID]
AC50 [10]: 39.8 µM (inconclusive)

O=C(COC(=O)c1ccccn1)c1cccc(Br)c1
IC50 (Nonstructural protein 1): 25.6 µM (active) | AC50 [11]: 91 µM (active)

Cc1cccc(NC(=O)[C@@H]2CCCN2S(=O)(=O)c2ccc(Cl)cc2)c1
IC50 (CHO-K1): > 66.2 µM (inactive) | IC50 [12]: > 49.7 µM (inactive) | IC50 [13]: 0.153 µM (active) | IC50 [14]: 4.23 µM (active) | IC50 (Orexin receptor type 2 [15]): 1.4 µM (active) | IC50 (Orexin receptor type 2 [16]): 0.37 µM (active)

COc1ccccc1CC(=O)NC1CCCc2ccccc21 (stereo not drawn)
IC50 [17]: 9.28 µM (active)

N#CCc1c(Cl)cnn(Cc2cccc3ccccc23)c1=O
IC50 [8]: 2.69 µM (active) | IC50 [9]: 2.69 µM (active)

O=C(CN1C(=O)/C(=C\c2cccc(Br)c2)Oc2ccccc21)NCC1CCCO1 (stereo not drawn)
IC50 [18]: 4.98 µM (active) | IC50 [19]: > 50 µM (inactive) | IC50 (CHO-K1): > 66.2 µM (inactive) | AC50 (Trypsin): 4.3 µM (active) | IC50 [12]: > 49.8 µM (inactive) | IC50 [13]: 0.314 µM (active) | IC50 [14]: 1.08 µM (active) | IC50 (Orexin receptor type 2 [15]): > 88.8 µM (inactive) | IC50 (Orexin receptor type 2 [16]): > 50 µM (inactive)

Reference: ChEMBL document CHEMBL1201862, “PubChem BioAssay data set” (2004)
